Holding throughout (format): cell-based
One test concerns the target T1, adenine binding GPCR (Rattus norvegicus, UniProt Q7TN49).
T1 construct: The full length reading frame was inserted into the mammalian expression vector pcDNA3; expressed in transfected cells; host or cells: HEK293 cells stably transfected with pLEC/Gqi or pLEC/Gqo
T1 sequence (Q7TN49 1-304): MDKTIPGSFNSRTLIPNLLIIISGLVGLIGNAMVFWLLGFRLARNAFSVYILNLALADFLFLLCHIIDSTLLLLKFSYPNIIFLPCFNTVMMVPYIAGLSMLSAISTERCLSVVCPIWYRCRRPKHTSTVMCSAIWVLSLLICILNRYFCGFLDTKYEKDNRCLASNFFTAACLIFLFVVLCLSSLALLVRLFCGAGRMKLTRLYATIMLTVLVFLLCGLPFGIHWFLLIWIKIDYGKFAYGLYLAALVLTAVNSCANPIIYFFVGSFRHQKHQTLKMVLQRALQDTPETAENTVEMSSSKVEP
Nature of the test: FLIPR Ca2+ transient assay, antagonism of 30 nM adenine challenge. The note with it: 15 minutes incubation with compound (30 μM to 30 pM), then challenge with 30 nM adenine. From the text:
The full length reading frame was inserted into the mammalian expression vector pcDNA3 (Invitrogen, Carlsbad, Calif., U.S.A.) and the resulting expression construct was transiently transfected with the FuGENE 6 reagent (Roche Molecular Biochemicals, Mannheim, Germany) into HEK293 cells stably transfected (E. Bender, unpublished) with pLEC/Gqi or pLEC/Gqo (Molecular Devices, Sunnyvale, Calif., U.S.A.). The cells were loaded with Fluo-4 (Molecular Probes, Eugene, Oreg., U.S.A.) according to the recommendations of the supplier.
After a 15 minutes incubation at room temperature, the same cells were challenged with 30 nM adenine, to detect antagonistic properties of molecules added in the first round of superfusion.

The test system of the next test is wild type CHO cells. Nature of the test: Intracellular Ca2+ measurements (FLIPR) on wild type CHO cells.
The target of a further test is T2, rat adenine binding GPCR (Rattus norvegicus, UniProt Q7TN49).
T2 sequence (Q7TN49 1-304): T1 sequence (Q7TN49 1-304)
As to the kind of experiment: Intracellular Ca2+ measurements (FLIPR) on permanently transfected CHO cells, clone 28. Further details: The full length reading frame was inserted into the mammalian expression vector pcDNA3; expressed in transfected cells. The method, then:
Finally, measurements of intracellular Ca^2+ were performed on the best functionally coupled CHO cell line, clone 28. The effect of Na-butyrate pre-treatment was investigated using a dose response curve of adenine.
a) Methods—Two days before the experiment the cells were seeded out in a 96 well plate at a density required for approximately 90% cell confluence at the day of the experiment. Compounds were diluted in calcium buffer (5 mM HEPES/NaOH, pH 7.4, 140 mM NaCl, 1 mM MgCl2, 5 mM KCl, 10 mM glucose, 1.25 mM CaCl2, 2.5 mM probenecid, pH 7.4), twice their final concentrations. For basal values, calcium buffer was applied and for the maximum response, 10 μM ionomycin was used. The growth medium was removed and the cells were loaded in serum-free growth medium supplemented with probenecid (5 mM), the indicator Fluo-3 (2 μM), 20 mM HEPES/NaOH, pH, 7.4 and 0.1% BSA in the incubator at 37° C. After 60 minutes incubation, the cells were washed 3 times with the calcium buffer. 100 μl of the diluted compounds was transferred to the wells and changes in intracellular calcium levels were measured with the FLIPR® (Fluorometric Imaging Plate Reader, Molecular Devices). Each data point was run in duplicate and the peak of the Ca ^2+-transient was considered as the relevant signal. The sigmoid concentration response curves were analyzed using the GraphPad Prism program.

The target of test [1] is T3, adenine binding rat receptor (Rattus norvegicus, UniProt Q7TN49).
T3 construct: expressed in transfected cells; host or cells: CHO cells, transient, lipofectamine PLUS
T3 sequence (Q7TN49 1-304): T1 sequence (Q7TN49 1-304)
Nature of the test: cAMP measurements on CHO cells permanently transfected (clone 28). The protocol: For permanently transfected CHO cells, cAMP measurements were performed using the indirect RIA kit from NEN (Belgium).
a) Methods: Two days before the experiment the cells were seeded out in a 96 well plate at a density required for approximately 90% confluence at the day of the experiment. After removal of the growth medium, the cells were washed twice with a controlled salt solution (CSS) containing 25 mM Tris-HCl, pH 7.4, 120 mM NaCl, 5.4 mM KCl, 0.8 mM MgCl2, 1.8 mM CaCl2, 15 mM glucose and 15 mg/l phenol red, with an addition of a phosphodiesterase inhibitor IBMX (3-isobutyl-1-methylxanthine) in a concentration of 1 mM and […]. Basal cAMP levels were determined in CSS containing these additives and maximally stimulated cAMP levels were determined in the presence of 50 μM forskolin. For testing agonistic activity, the compounds were incubated with the cells for 20 minutes at 37° C. The reaction was stopped by addition of ice cold HClO4 (1N) and stored at −20° C. After thawing the mixtures were neutralized with an equivalent amount of phosphate buffered KOH, left at 4° C. during 30 minutes to allow the salts to precipitate and centrifuged at 2,000 RPM for 5 minutes at 4° C.
For the quantitative determination of the cAMP levels, a 96-well Flashplate radioimmunoassay kit from NEN was used, according to the protocol of the supplier. The sigmoid concentration response curves (duplicate points) were analyzed using the GraphPad Prism program.

Setting [2] is: clone 28, Na-butyrate treated cells.
Where [3] appears, read: clone 28, non-Na-butyrate treated cells.

Like-named read-outs stand apart in the source and are kept apart here.

Here are results for two compounds from patent US20030157516A1, “G protein coupled receptor” (priority 2000, published 2003).

As to `Nc1ncnc2c1ncn2[C@@H]1O[C@H](COP(=O)(O)O)[C@@H](O)[C@H]1O` [AMP], the antagonistic effect result on adenine binding GPCR is reported as “did not elicit antagonistic effects”.

`Nc1ncnc2nc[nH]c12` [Adenine, adenine]: the “intracellular Ca2+ response” value with wild type CHO cells is listed as “did not show any response”. In addition, the EC50 on rat adenine binding GPCR (setting [2]) is 14.8 nM; at rat adenine binding GPCR (setting [3]) it was 72.4 nM; in test [1] (after Na-butyrate induction, read-out: EC50), 3 nM; in test [1] (transfected cells (clone 28), 0.5% hiFCS, Na-butyrate induction, read-out: pEC50 (converted)) it was 2.88 nM; in test [1] (transfected cells (clone 28), 10% hiFCS, Na-butyrate induction, read-out: pEC50 (converted)) it was 2.95 nM. The “increase in RFU” value on rat adenine binding GPCR (setting [2]) turned out to be 3 fold. Besides, at rat adenine binding GPCR (setting [3]), the “increase of the basal relative fluorescence units (RFU)” value was found to be 1.25 fold.
